Test results published in patent publication US9334288B2, “Selective β-glucuronidase inhibitors as a treatment for side effects of camptothecin antineoplastic agents” (The University of North Carolina at Chapel Hill, priority 2009, dated 2016).

Key:
diarrhea = settings: rats, literature (Fittkau et al. 2004); cited from earlier work
E. coli β-glucuronidase = E. coli β-glucuronidase (Escherichia coli, UniProt P05804); type: biochemical; set-up: The full-length E. coli β-glucuronidase gene was obtained from bacterial genomic DNA; 6xHis (N); made in house; host or cells: E. coli BL21-DE3; settings: in vitro, using PNPG
E. coli β-glucuronidase, sequence (P05804 whole entry): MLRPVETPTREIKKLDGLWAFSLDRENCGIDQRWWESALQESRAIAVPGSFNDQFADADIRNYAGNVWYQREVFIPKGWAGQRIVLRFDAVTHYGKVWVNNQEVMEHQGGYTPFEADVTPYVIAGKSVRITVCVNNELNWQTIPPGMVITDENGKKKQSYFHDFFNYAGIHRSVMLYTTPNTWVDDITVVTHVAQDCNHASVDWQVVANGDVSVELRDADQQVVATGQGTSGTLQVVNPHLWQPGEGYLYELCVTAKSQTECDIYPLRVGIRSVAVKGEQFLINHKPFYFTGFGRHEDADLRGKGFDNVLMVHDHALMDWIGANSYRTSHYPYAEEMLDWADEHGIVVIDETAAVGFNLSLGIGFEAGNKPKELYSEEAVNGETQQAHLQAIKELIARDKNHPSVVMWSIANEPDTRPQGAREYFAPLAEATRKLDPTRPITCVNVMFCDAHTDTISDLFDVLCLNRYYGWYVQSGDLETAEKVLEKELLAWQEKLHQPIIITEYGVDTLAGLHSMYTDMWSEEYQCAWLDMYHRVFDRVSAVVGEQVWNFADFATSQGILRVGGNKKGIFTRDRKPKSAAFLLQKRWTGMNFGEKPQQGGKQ
Text: (§1) Thus, two other β-glucuronidase activity assays were employed to examine the potency of inhibitors both in vitro and in cell-based studies. An absorbance assay based on the conversion of p-nitrophenyl glucuronide (PNPG) to p-nitrophenol (PNP) (Szasz (1967) Clin Chem 13:752-759), which absorbs at 410 nm, was employed as the primary in vitro assay (FIG. 9). A secondary assay involving the conversion of phenolphthalein glucuronide (PheG) to phenolphthalein (Phe), which absorbs at 540 nm, was also employed (FIG. 9). Id.
In vitro assays were conducted at 50 μL total volume in 96-well, clear bottom assay plates (Costar). Substrates consisted of PNPG or PheG (FIG. 9) and were acquired from Sigma. The presence of the hydrolysis product of each, PNP or Phe, was measured by absorbance at 410 nm or 540 nm, respectively. […] Absorbance was measured using a PHERAstar Plus microplate reader (BMG Labtech).
In vitro assays were conducted at 50 μL total volume in 96-well, clear bottom assay plates (Costar). […] The presence of the hydrolysis product of each, p-nitrophenol (PNP) and phenolphthalein (Phe), was measured by absorbance at 410 nm or 540 nm, respectively. […] Absorbance was measured using a PHERAstar Plus microplate reader (BMG Labtech). Data acquired was analyzed using Microsoft Excel and Sigmaplot 11.0.

[1] = molecular target: β-glucuronidase activity in living E. coli cells (Escherichia coli, UniProt P05804); type: cell-based; set-up: The full-length E. coli β-glucuronidase gene was obtained from bacterial genomic DNA; expressed in transfected cells; host or cells: E. coli HB101 transformed with pET-28a-GUS
β-glucuronidase activity in living E. coli cells, sequence (P05804 whole entry): as above
Text: as §1
HB101 E. coli cells were grown to an OD600 of 0.6 in LB medium. These cells were then used for an in vivo assay. Reaction time and temperature were the same as previously described (see In Vitro β-Glucuronidase Assays). […] Absorbance was measured at the appropriate wavelength, depending on the substrate. […]
HB101 E. coli cells, transformed with the pET-28a vector containing the β-Glucuronidase gene, were grown to an OD600 of 0.6 in LB medium. […] Absorbance was measured at the appropriate wavelength, either 410 nm or 540 nm. Cell survivability in the presence of the nine inhibitors was assessed by plating a 10^−5 dilution of 200 μl of saturated cells after incubation with 100 μM of each inhibitor for 6 hours. […] Plated cells were allowed to incubate at 37° C. overnight, and colonies were counted to quantify the viability of the cells.

Row | SMILES | reversal of CPT-11 diarrhea / epithelial cell death (diarrhea) | IC50 (E. coli β-glucuronidase) [µM] | efficacy in living cells [1]
1 | O=C1OC(C(O)C(=O)O)C(O)C1O (stereo not drawn) [saccharic acid 1,4-lactone] | partially reversed |  | 
2 | O=C(O)[C@H]1NC(=O)[C@H](O)[C@@H](O)[C@@H]1O [GDL, glucaro-δ-lactam, reference compound] |  | 45 ± 3.1 | ineffective
